Measurements as given in ChEMBL document CHEMBL3616393, “Recent progress on MAP kinase pathway inhibitors” (Bioorg Med Chem Lett, 2015).

Legend:
[1] = molecular target: T1, Mitogen-activated protein kinase 3 (Homo sapiens, UniProt P27361); test: Inhibition of ERK1 (unknown origin) after 45 mins by IMAP assay
[2] = molecular target: Serine/threonine-protein kinase B-raf (Homo sapiens) (UniProt P15056); test: Binding affinity to B-RAF (unknown origin) assessed as dissociation half life
Homo sapiens [3] = test: In vivo inhibition of B-RAF in inhibitor-pretreated patient relative to control; format: functional
Homo sapiens [4] = test: Toxicity in patient administered daily; format: organism-based; conditions: in vivo
Homo sapiens [5] = test: In vivo inhibition of B-RAF in naive patient relative to control; format: functional
[6] = Effective half life in patient; format: ADME, organism-based; conditions: human, in vivo; read-out: t1/2eff
[7] = Plasma half life in po dosed Sprague-Dawley rat; format: ADME, organism-based
[8] = molecular target: T1, Mitogen-activated protein kinase 3; test: Competitive inhibition of ERK1 (unknown origin) in presence of ATP

T1 sequence (P27361 whole entry): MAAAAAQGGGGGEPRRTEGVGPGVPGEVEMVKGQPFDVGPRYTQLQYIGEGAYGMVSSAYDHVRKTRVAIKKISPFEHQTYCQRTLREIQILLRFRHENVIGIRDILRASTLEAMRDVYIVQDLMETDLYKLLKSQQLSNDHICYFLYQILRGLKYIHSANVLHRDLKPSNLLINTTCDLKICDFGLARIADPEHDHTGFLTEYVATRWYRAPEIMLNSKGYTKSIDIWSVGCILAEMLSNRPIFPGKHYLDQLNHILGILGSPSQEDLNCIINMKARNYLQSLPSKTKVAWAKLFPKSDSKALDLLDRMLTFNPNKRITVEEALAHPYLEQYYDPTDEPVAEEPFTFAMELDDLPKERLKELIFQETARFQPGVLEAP
Sequence of Serine/threonine-protein kinase B-raf (Homo sapiens) (P15056 whole entry): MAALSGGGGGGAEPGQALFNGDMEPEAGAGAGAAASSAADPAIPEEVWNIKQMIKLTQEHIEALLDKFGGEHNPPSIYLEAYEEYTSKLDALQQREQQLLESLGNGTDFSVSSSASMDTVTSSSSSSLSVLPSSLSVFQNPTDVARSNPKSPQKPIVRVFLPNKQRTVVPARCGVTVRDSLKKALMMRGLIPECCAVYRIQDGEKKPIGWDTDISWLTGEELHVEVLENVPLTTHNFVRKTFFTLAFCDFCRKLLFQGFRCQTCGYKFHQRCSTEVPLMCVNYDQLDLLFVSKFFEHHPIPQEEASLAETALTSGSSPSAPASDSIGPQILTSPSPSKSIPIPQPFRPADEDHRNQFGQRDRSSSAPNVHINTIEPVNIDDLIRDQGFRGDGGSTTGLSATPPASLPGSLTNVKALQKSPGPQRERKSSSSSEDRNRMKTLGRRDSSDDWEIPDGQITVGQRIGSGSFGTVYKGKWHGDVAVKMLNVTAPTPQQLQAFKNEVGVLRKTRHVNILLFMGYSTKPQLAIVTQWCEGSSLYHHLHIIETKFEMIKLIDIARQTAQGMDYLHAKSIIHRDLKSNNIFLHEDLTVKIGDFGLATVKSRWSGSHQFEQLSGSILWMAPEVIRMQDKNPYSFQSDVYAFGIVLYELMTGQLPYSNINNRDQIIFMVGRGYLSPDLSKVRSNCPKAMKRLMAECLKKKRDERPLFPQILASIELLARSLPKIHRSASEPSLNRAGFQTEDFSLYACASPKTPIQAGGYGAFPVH

`O=C(Nc1ccc2[nH]nc(-c3ccncc3)c2c1)[C@@H]1CCN(CC(=O)N2CCN(c3ccc(-c4ncccn4)cc3)CC2)C1` showed an IC50 [1] of 4 nM.

With `COC(=O)N[C@@H](C)CNc1nccc(-c2cn(C(C)C)nc2-c2cc(Cl)cc(NS(C)(=O)=O)c2F)n1` [ENCORAFENIB] the T1/2 [2] was > 24 h, the “inhibition (INH)” value (Homo sapiens [3]) was 11% and the MTD (Homo sapiens [4]) was 600 mg. For the same compound, the “inhibition (INH)” value (Homo sapiens [5]) was 58%.

For `CC(=O)Nc1cccc(-n2c(=O)n(C3CC3)c(=O)c3c(Nc4ccc(I)cc4F)n(C)c(=O)c(C)c32)c1` [TRAMETINIB], the half-life [6] was > 40 h and the half-life [7] was > 30 h.

With `CC(C)Nc1cc(-c2c[nH]c(C(=O)N[C@H](CO)c3cccc(Cl)c3)c2)c(Cl)cn1` the INH [8] was 300 pM.

In the case of `Cn1cnc2c(F)c(Nc3ccc(Br)cc3F)c(C(=O)NOCCO)cc21` [BINIMETINIB], the “inhibition (INH)” value (Homo sapiens [3]) is reported as 18% and the “inhibition (INH)” value (Homo sapiens [5]) is reported as 88%.
